Test results as given in patent publication US20220218725A1, “METHODS AND MATERIALS FOR TREATING CANCER” (Mayo Foundation for Medical Education and Research, priority 2019, published 2022).

Tests used:
Assay type in all cases: cell-based
JeKo-1 cells [1] = test: Cell viability, Annexin V/PI assay (also IC50 and combination index); conditions: for % viability normalized for respective controls: JeKo-1 (MCL), 48 hours, KPT-330 0.1-1.0 μM, CS 1-3 mM, single agent or combination
Description: To assess apoptosis and cellular proliferation, all cell lines were treated with CRM 1 inhibitors (concentration ranging from 0.05-2 μM) and salicylates at concentrations ranging from (0.001-10 mM) for 48 hours before analysis was performed. DMSO was used to substitute the drug in controls.
After 48 hours incubation, cells were washed with Annexin buffer solution and stained with both propidium iodide (PI) and FITC-Annexin V (Life Technologies), and assayed on a BD Accuri flow cytometer (BD Biosciences). Apoptosis results were analyzed with BD CellQuest software. For cell cycle analysis, Jeko-1 cell line was intubated with CRM 1 inhibitors (concentrations ranging from […]) and salicylates (concentration at 3 mM) and Ly-1 cell line was intubated with CRM 1 inhibitors (concentrations ranging from 0.1-2.0 μM) and salicylates (concentration at 0.5-5 mM) for 24 and 48 hours and then fixed with 95% cold ethanol and kept at 4 C° for 24 h and subsequently underwent cell cycle analysis after PI staining and analysis was performed using BD FACS caliber flow cytometer (BD Biosciences) and FlowJo software (Tree Star).
(§1) Cell lines were purchased from the cell line repositories ATCC (Manassas, Va.) or DSMZ (Braunschweig, Germany). These included MCL cell lines: JeKo-1, Mino; TCL cell lines: Karpas-299, SR-786; DLBCL cell lines: OCI-Ly1 (LY-1), OCI-Ly3 (LY-3), OCI-Ly19 (LY-19), SU-DHL-6 (DHL-6); MM cell lines: RPMI, U266, OPM2, Xgl, KMS2; ALL cell lines: CRL-1783; non-small cell lung cancer: NCI-H460, A549, HCC827; small cell lung cancer: H1048; sarcoma: Fuji, SW872. Cell lines were cultured according to instruction.
(§2) KPT-330 purchased from Selleckchem (cat no: S7252) was dissolved in DMSO while CS (Santa Cruz, Calif.S 2016-36-6), sodium salicylate (Sigma-Aldrich, cat no: S3007), acetyl salicylate (Sigma-Aldrich, cat no: CAS 50-78-2) was diluted in PBS. Ketorolac (Sigma-Aldrich, cat no: 1356665), Bortezomib (Selleckchem, cat no: S1013), gemcitabine (Sigma-Aldrich, cat no: G6423), Leptomycin-B (Sigma-Aldrich, cat no: L2913-2X) and KPT-185 (Selleckchem, cat no: S7125) were dissolved in DMSO. The concentration range of KPT-330 was 0.05-1.0 μM while CS was 1-3 mM were used for ex vivo treatment and incubation time ranged from 24 hours to 72 hours. For the PARP inhibitor assay, olaparib 10 μM (SelleckChem, cat no: AZD2281 Ku-0059436) was used.
(§3) The viability assessment for cell lines and primary patients samples were conducted with the Annexin V/PI method.
Jeko-1 and OCI-Ly1 cell lines were used to assess the IC50. Keeping CS at 3 mM, KPT-330 was titrated. Relative IC50 was calculated as described elsewhere (see, e.g., Sebaugh et al., Pharmaceutical statistics 10:128-134 (2011)). The combination index was calculated as described elsewhere (see, e.g., Chou et al., Cancer Res 70:440-446 (2010)).

BT-474 cells = test: Cell viability, Annexin V/PI assay; conditions: BT-474 (Breast cancer); 48 hours; KPT-330 0.1-1.0 μM, CS 1-3 mM, single agent or combination
Description: (§6) KPT-330 purchased from Selleckchem (cat no: S7252) was dissolved in DMSO while CS (Santa Cruz, Calif.S 2016-36-6), sodium salicylate (Sigma-Aldrich, cat no: S3007), acetyl salicylate (Sigma-Aldrich, cat no: CAS 50-78-2) was diluted in PBS. […] The concentration range of KPT-330 was 0.05-1.0 μM while CS was 1-3 mM were used for ex vivo treatment and incubation time ranged from 24 hours to 72 hours.

JeKo-1 cells [2] = test: Cell cycle analysis (PI staining, flow cytometry); conditions: unsynchronized JeKo-1 cells
Description: For cell cycle analysis, Jeko-1 cell line was intubated with CRM 1 inhibitors (concentrations ranging from 0.1-0.5p M) and salicylates (concentration at 3 mM) and Ly-1 cell line was intubated with CRM 1 inhibitors (concentrations ranging from 0.1-2.0 μM) and salicylates (concentration at 0.5-5 mM) for 24 and 48 hours and then fixed with 95% cold ethanol and kept at 4 C° for 24 h and subsequently underwent cell cycle analysis after PI staining and analysis was performed using BD FACS caliber flow cytometer (BD Biosciences) and FlowJo software (Tree Star).
Cell Cycle Analysis Following incubation, cells were fixed with 70% cold ethanol and kept at 4 C° for 24 hours, followed by PI staining. Cell cycle analysis was done by using a BD FACS Caliber flow cytometer (BD Biosciences) and analyzed using FlowJo® Software.
A double thymine block was used to synchronize cells at G1 phase of the cell cycle. JeKo-1 cells were cultured in thymidine at 2 mM in RPMI for 9 hours. Subsequently, cells were washed and cultured in RPMI media (RPMI) without additional thymidine for 12 hours and the second block of cell cycle with thymidine (2 mM) was carried out for an additional 9 hours with in RPMI. Following the double thymidine block, cells were released by re-culturing cells in normal RPMI without additional thymidine. The viability of cells at the time of release was >90%. […]

MCF7 cells = test: Cell viability, Annexin V/PI assay; conditions: MCF7 (Breast cancer); 48 hours; KPT-330 0.1-1.0 μM, CS 1-3 mM, single agent or combination
Description: as §6

RPMI (MM cell line) = test: Cell viability, Annexin V/PI assay; conditions: 48 hours, KPT-330 0.1-1.0 μM, CS 1-3 mM, single agent or combination
Description: as §1, §2, §3

OCI-Ly19 cells = test: Cell viability, Annexin V/PI assay; conditions: OCI-Ly19 (DLBCL); 48 hours; KPT-330 0.1-1.0 μM, CS 1-3 mM, single agent or combination
Description: as §1, §2, §3

Panc-1 cells = test: Cell viability, Annexin V/PI assay; conditions: Panc-1 (Pancreatic cancer); 48 hours; KPT-330 0.1-1.0 μM, CS 1-3 mM, single agent or combination
Description: (§4) All cell lines were obtained from commercial vendors (ATCC or DSMZ), which includes mantle cell lymphoma (MCL) cell lines: Jeko-1, Mino, JVM-2; T-cell lymphoma (TCL) cell lines: SU-DHL-1, Karpas-299, SR-786 and HUT-78; and diffuse large B-cell lymphoma cell lines: OCI-Ly1, SU-DHL-2, OCI-Ly3, SU-DHL-6; Waldenstrom macroglobulinemia (WM) cell lines: BCWM, MWCL, RPCI; sarcoma cell lines: FUJI, SW872, and pancreatic cancer cell lines: PANC-1.
(§5) WM, TCL, and MCL cell lines were cultured in RPMI media supplemented with 10% fetal bovine serum while DLBCL cell lines were cultured in IMDM media with 10% human serum (Sigma). Pancreatic cancer and sarcoma cell lines were cultured in DMEM with 10% fetal bovine serum. All cell lines were assessed for their viability before use in experiments. Only cells with the viability of 85% or greater were used.

MWCL cells = test: Cell viability, Annexin V/PI assay; conditions: MWCL (WM); 48 hours; KPT-330 0.1-1.0 μM, CS 1-3 mM, single agent or combination
Description: as §4, §5

RPCI cells = test: Cell viability, Annexin V/PI assay; conditions: RPCI (WM); 48 hours; KPT-330 0.1-1.0 μM, CS 1-3 mM, single agent or combination
Description: as §4, §5

BCWM cells = test: Cell viability, Annexin V/PI assay; conditions: BCWM (WM); 48 hours; KPT-330 0.1-1.0 μM, CS 1-3 mM, single agent or combination
Description: as §4, §5

L3.6 cells = test: Cell viability, Annexin V/PI assay; conditions: L3.6 (Pancreatic cancer); 48 hours; KPT-330 0.1-1.0 μM, CS 1-3 mM, single agent or combination
Description: as §6

Compound | IC50 (JeKo-1 cells [1]; Homo sapiens, JeKo-1 (MCL cells), 72 hours, selinexor titrated alone or with CS kept at 3 mM) | % viability normalized for respective controls (JeKo-1 cells [1]) | % viability normalized for respective controls (BT-474 cells) | fraction of cells in the G2/M phase (JeKo-1 cells [2]) | % viability normalized for respective controls (MCF7 cells) | % viability normalized for respective controls (RPMI (MM cell line)) | % viability normalized for respective controls (OCI-Ly19 cells) | % viability normalized for respective controls (Panc-1 cells) | % viability normalized for respective controls (MWCL cells) | % viability normalized for respective controls (RPCI cells) | % viability normalized for respective controls (BCWM cells) | % viability normalized for respective controls (L3.6 cells)
O=C(/C=C\n1cnc(-c2cc(C(F)(F)F)cc(C(F)(F)F)c2)n1)NNc1cnccn1 [KPT-330, (Z)-3-[3-[3,5-bis (trifluoromethyl)phenyl]-1,2,4-triazol-1-yl]-N′-pyrazin-2-ylprop-2-enehydrazide] | 1.3 µM | 95% | 73% | 15% | 98% | 87.5% | 57% | 90% | 65% | 63% | 69% | 61%
C[N+](C)(C)CCO.O=C([O-])c1ccccc1O [CS, choline salicylate] |  | 93% | 110% | 11% | 87% | 85% | 88% | 90% | 89% | 92% | 84% | 72%
